One block for each compound: values may come before it.
Tests used:
Aromatase [1] = biological target: T1, Aromatase (Homo sapiens, UniProt P11511); format: microsomes, Placenta, Microsome
T1 sequence (P11511 whole entry): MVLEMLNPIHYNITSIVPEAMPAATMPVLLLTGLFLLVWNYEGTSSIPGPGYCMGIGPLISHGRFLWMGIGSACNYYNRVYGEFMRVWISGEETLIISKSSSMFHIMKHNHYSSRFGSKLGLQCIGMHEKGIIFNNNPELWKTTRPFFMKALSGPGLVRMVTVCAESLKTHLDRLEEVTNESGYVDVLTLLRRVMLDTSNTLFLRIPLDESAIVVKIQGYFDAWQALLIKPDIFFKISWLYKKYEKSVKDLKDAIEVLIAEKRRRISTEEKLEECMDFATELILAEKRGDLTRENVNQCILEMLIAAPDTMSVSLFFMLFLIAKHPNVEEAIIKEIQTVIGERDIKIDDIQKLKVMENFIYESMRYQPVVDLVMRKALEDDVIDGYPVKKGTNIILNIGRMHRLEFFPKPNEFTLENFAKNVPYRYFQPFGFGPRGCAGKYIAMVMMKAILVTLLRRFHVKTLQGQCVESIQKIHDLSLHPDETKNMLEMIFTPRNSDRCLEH

Steryl-sulfatase [2] = biological target: T2, Steryl-sulfatase (Homo sapiens, UniProt P08842)
T2 sequence (P08842 whole entry): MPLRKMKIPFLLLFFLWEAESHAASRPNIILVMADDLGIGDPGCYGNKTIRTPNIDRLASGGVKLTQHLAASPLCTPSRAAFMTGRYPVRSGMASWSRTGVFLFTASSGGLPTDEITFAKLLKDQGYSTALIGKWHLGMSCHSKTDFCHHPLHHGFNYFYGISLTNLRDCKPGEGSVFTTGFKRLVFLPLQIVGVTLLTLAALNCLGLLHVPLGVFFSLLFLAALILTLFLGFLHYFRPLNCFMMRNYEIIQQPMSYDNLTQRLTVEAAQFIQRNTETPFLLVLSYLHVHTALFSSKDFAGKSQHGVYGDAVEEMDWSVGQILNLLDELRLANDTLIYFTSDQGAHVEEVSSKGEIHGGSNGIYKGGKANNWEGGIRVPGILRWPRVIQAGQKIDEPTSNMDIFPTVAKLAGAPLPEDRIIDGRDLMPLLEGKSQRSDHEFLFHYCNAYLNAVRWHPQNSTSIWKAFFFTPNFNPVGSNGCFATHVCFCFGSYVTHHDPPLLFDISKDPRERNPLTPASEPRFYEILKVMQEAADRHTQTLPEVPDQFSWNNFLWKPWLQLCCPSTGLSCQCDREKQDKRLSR

Steryl-sulfatase [3] = biological target: T2, Steryl-sulfatase; remark: listed apart in the source
Aromatase [4] = biological target: T1, Aromatase; format: microsomes, Placenta, Microsome; remark: listed apart in the source
Aromatase [5] = biological target: T1, Aromatase
Steryl-sulfatase [6] = biological target: T2, Steryl-sulfatase; format: microsomes, Placenta, Microsome
Steryl-sulfatase [7] = biological target: T2, Steryl-sulfatase; format: cell-based, HEK293
Steryl-sulfatase [8] = biological target: T2, Steryl-sulfatase; format: cell-based, HEK293; remark: listed apart in the source
Estrogen receptor [9] = biological target: T3, Estrogen receptor (Homo sapiens, UniProt P03372)
T3 sequence (P03372 whole entry): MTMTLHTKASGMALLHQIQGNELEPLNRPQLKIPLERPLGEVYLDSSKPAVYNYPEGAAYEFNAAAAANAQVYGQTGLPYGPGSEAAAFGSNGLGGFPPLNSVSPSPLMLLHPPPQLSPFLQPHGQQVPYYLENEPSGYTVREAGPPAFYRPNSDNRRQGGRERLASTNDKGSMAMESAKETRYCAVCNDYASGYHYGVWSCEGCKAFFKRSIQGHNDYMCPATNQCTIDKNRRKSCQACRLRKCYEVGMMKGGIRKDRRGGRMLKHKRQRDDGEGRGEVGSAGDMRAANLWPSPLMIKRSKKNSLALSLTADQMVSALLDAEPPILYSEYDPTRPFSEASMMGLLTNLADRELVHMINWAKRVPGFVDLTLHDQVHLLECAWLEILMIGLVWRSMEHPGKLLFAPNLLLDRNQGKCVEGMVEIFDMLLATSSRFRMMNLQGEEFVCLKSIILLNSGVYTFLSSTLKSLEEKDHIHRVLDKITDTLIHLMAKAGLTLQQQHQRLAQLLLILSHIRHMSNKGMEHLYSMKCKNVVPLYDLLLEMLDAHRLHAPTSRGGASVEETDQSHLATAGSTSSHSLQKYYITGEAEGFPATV

Steryl-sulfatase [10] = biological target: T2, Steryl-sulfatase; remark: listed apart in the source
Estrogen receptor [11] = biological target: T3, Estrogen receptor; format: cell-based, MCF7
MCF7 = test: cells; format: functional, cell-based; settings: Homo sapiens, MCF7, 72 h
Estrogen receptor [12] = biological target: T3, Estrogen receptor; remark: listed apart in the source
Estrogen receptor beta = Estrogen receptor beta (Homo sapiens, UniProt Q92731); format: cell-based, MCF7
Chain of Estrogen receptor beta (Q92731 whole entry): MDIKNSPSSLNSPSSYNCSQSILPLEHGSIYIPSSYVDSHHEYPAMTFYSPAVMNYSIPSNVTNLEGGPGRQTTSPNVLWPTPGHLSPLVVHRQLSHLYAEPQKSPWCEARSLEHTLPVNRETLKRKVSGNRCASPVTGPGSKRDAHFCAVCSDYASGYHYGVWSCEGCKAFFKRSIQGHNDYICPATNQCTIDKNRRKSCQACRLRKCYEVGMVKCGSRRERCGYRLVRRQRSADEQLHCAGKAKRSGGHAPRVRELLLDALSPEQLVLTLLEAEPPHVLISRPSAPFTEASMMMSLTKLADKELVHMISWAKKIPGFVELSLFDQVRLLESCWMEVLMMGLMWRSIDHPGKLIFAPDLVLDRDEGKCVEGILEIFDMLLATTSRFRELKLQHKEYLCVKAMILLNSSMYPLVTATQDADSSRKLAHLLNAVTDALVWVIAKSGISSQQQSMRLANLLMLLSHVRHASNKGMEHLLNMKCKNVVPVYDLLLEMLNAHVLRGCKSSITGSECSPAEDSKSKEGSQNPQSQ

Estrogen receptor [13] = biological target: T3, Estrogen receptor; remark: listed apart in the source
[14] = biological target: Receptor tyrosine-protein kinase erbB-2 (Homo sapiens, UniProt P04626)
Chain of Receptor tyrosine-protein kinase erbB-2 (P04626 whole entry): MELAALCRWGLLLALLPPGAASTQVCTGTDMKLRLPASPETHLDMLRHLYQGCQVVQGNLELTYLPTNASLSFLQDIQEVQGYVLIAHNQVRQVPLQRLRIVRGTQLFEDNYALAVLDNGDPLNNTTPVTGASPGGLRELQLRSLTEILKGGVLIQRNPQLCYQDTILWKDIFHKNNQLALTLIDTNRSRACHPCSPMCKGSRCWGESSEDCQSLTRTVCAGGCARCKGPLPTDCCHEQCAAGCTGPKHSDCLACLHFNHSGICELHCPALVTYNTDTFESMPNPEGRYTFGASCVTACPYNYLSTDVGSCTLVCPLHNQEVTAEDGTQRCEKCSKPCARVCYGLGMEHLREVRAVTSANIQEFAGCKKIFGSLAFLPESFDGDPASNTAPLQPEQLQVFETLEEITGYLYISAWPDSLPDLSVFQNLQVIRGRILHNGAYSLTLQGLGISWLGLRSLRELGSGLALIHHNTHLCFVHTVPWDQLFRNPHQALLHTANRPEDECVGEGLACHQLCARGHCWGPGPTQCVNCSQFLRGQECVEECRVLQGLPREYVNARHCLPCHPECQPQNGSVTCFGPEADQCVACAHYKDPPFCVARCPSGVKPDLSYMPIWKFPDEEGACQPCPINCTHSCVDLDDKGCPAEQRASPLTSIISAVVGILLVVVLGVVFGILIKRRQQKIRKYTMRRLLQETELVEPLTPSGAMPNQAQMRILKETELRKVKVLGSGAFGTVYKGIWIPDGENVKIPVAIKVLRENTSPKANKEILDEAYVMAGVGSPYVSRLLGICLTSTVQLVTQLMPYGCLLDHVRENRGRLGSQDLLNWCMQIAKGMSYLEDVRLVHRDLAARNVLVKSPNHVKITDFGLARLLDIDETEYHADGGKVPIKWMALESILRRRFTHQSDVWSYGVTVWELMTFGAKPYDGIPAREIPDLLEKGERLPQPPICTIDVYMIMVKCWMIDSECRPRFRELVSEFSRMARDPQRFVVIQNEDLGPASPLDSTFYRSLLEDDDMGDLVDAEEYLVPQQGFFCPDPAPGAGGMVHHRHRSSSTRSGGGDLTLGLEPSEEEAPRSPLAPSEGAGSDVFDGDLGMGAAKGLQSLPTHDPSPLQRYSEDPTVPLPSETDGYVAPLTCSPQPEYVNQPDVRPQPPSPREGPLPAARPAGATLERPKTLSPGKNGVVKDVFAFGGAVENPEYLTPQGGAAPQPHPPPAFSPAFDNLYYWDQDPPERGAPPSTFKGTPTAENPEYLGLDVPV

[15] = biological target: RAF proto-oncogene serine/threonine-protein kinase (Homo sapiens, UniProt P04049); format: cell-based, MCF7
Chain of RAF proto-oncogene serine/threonine-protein kinase (P04049 whole entry): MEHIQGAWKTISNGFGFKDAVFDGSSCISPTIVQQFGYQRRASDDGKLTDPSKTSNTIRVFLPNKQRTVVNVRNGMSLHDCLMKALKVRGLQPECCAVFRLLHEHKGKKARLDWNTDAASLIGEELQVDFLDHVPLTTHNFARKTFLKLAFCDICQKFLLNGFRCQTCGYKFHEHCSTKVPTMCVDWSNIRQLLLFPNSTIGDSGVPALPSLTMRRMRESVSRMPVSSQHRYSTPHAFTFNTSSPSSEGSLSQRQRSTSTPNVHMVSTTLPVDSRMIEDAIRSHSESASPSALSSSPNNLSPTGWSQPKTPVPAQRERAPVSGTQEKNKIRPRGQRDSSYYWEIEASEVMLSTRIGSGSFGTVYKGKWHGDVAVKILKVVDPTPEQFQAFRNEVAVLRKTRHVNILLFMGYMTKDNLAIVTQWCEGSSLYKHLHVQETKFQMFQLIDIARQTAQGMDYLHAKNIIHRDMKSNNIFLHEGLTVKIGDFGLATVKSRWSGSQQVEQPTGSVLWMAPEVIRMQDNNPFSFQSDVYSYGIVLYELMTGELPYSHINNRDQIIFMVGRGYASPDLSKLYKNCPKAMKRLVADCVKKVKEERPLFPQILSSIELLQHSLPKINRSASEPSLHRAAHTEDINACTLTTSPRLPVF

IC50 (Aromatase [1]): 0.4 nM
SMILES: N#Cc1ccc(N(Cc2ccc(Br)cc2)n2cnnc2)cc1

IC50 (Steryl-sulfatase [2]): 0.047 nM
SMILES: CC(C)(C)c1cc(=O)c2cc(OS(N)(=O)=O)ccc2o1

IC50 (Steryl-sulfatase [2]): 0.089 nM
SMILES: CCCCCCCCCc1cc(=O)c2cc(OS(N)(=O)=O)ccc2o1

SMILES: C[C@]12CC[C@@H]3c4ccc(C(F)(F)S(N)(=O)=O)cc4CC[C@H]3[C@@H]1CCC2=O
Ki (Steryl-sulfatase [3]): 28 to 82 µM

IC50 (Aromatase [4]): 100 nM
SMILES: COc1ccc2c(c1)C(N)=C(Cc1ccncc1)C2=O

Ki (Steryl-sulfatase [3]): > 500 µM
SMILES: CC/C(=C(\c1ccc(OCCN(C)C)cc1)c1ccc(OS(N)(=O)=O)cc1)c1ccccc1

Ki (Steryl-sulfatase [3]): 35.9 µM
SMILES: CC/C(=C(/c1ccc(OCCN(C)C)cc1)c1ccc(OS(N)(=O)=O)cc1)c1ccccc1

IC50 (Steryl-sulfatase [3]): 180 nM
SMILES: N#Cc1ccc2sc(C34CC5CC(CC(C5)C3)C4)cc(=O)c2c1

SMILES: C[C@]12CCC(=O)C=C1C=C(CCc1ccccc1)[C@@H]1[C@@H]2CC[C@]2(C)C(=O)CC[C@@H]12
Ki (Aromatase [5]): 174 nM

IC50 (Steryl-sulfatase [6]): 72 nM
SMILES: CCCCCCCCCCCCCC(=O)NCc1ccc(OS(N)(=O)=O)cc1

IC50 (Steryl-sulfatase [7]): 46 nM
IC50 (Steryl-sulfatase [8]): 14 nM
SMILES: CC(C)(C)c1ccc(C[C@]2(O)CC[C@H]3[C@@H]4CC=C5C[C@@H](OS(N)(=O)=O)CC[C@]5(C)[C@H]4CC[C@@]32C)cc1

IC50 (Estrogen receptor [9]): 0.0035 µM
SMILES: CC(C)(C#N)c1cc(CSc2ccc(OS(N)(=O)=O)cc2)cc(Cn2cncn2)c1

IC50 (Steryl-sulfatase [10]): 460 nM
Ki (Steryl-sulfatase [10]): 350 nM
SMILES: COc1c2c(c(O)c3c1C(=O)c1cc(C)c(O)cc1C3=O)-c1c(cc(/C=N/NC(=S)NC3CCCCC3)c(C(=O)O)c1O)CC2

IC50 (Estrogen receptor [11]): 5.49 µM
SMILES: C/C=C1/[C@H](O)C[C@H]2[C@@H]3CCc4cc(OC)ccc4[C@H]3CC[C@]12C

IC50 (Steryl-sulfatase [3]): 2.5 nM
SMILES: N#Cc1ccc(N(Cc2ccc(OS(N)(=O)=O)cc2F)n2cnnc2)cc1

SMILES: C[C@]12CC[C@@H]3c4ccc(NC(=O)C(F)(F)F)cc4CC[C@H]3[C@@H]1CCC2=O
IC50 (Steryl-sulfatase [3]): 8700 nM

IC50 (Aromatase [1]): 0.12 nM
SMILES: O=[N+]([O-])c1ccc(N(Cc2ccc(Br)cc2)n2cnnc2)cc1

IC50 (Steryl-sulfatase [3]): 55.8 nM
SMILES: CCCCCCCCCCCCC(=O)NCCc1ccc(OS(N)(=O)=O)cc1

IC50 (MCF7): 3000 nM
SMILES: CC(O)[C@@]12C[C@@H]1C[C@H]1[C@@H]3CCc4cc(O)ccc4[C@H]3CC[C@]12C (some centres undefined)

IC50 (Aromatase [5]): 41 nM
SMILES: Oc1ccc2c(c1)O[C@@H](c1ccccc1)C[C@@H]2n1ccnc1

IC50 (Estrogen receptor [12]): 30 nM
SMILES: CC/C(=C(\c1ccc(O)cc1)c1ccc(OCCNCCCCCCNC(=O)CCC2=[N+]3C(=CC4=CC=C(C)C4[B-]3(F)F)C=C2)cc1)c1ccccc1 (centres undefined)

IC50 (Steryl-sulfatase [3]): 37800 nM
SMILES: O=c1oc2cc(OP(=O)(O)O)ccc2c2c1CCCC2

IC50 (Estrogen receptor [9]): 250 µM
SMILES: O=c1cc(-c2ccccc2)nc2ccc(-c3ccccc3O)cn12

Ki (Estrogen receptor beta): 1800 nM
SMILES: Cc1c(-c2ccc(O)cc2)nn(-c2ccc(O)cc2)c1-c1ccc(OCCN2CCCCC2)cc1

IC50 (Estrogen receptor [13]): 80 nM
IC50 [14]: 100 nM
IC50 [15]: 1500 nM
SMILES: CO[C@H]1/C=C\C=C(/C)C(=O)NC2=CC(=O)C(NC/C=C/C[C@@H]3C[C@H]4[C@@H]5CCc6cc(O)ccc6[C@H]5CC[C@]4(C)[C@H]3O)=C(C[C@@H](C)C[C@H](OC)[C@H](O)[C@@H](C)/C=C(\C)[C@@H]1OC(N)=O)C2=O (stereo in doubt)

— ChEMBL document CHEMBL4396892, “Estrogen signaling: An emanating therapeutic target for breast cancer treatment” (Eur J Med Chem, 2019)
